Measurements: article PMC11206987, “Investigation of the Efficacy of Benzylidene-3-methyl-2-thioxothiazolidin-4-one Analogs with Antioxidant Activities on the Inhibition of Mushroom and Mammal Tyrosinases” (Molecules, 2024)
Like-named read-outs stand apart in the source and are kept apart here.

Legend:
[1] = target: T1, B16F10 cellular tyrosinase (Mus musculus, UniProt P11344); assay: Cellular tyrosinase activity assay in B16F10 cells stimulated with IBMX plus α-MSH; assay type: cell-based, murine; conditions: 72 h; for effect on stimulator-induced cellular tyrosinase activity: 5, 10, 20 µM, IBMX plus α-MSH
T1 construct: host or cells: B16F10 cells
T1 sequence (P11344 19-533): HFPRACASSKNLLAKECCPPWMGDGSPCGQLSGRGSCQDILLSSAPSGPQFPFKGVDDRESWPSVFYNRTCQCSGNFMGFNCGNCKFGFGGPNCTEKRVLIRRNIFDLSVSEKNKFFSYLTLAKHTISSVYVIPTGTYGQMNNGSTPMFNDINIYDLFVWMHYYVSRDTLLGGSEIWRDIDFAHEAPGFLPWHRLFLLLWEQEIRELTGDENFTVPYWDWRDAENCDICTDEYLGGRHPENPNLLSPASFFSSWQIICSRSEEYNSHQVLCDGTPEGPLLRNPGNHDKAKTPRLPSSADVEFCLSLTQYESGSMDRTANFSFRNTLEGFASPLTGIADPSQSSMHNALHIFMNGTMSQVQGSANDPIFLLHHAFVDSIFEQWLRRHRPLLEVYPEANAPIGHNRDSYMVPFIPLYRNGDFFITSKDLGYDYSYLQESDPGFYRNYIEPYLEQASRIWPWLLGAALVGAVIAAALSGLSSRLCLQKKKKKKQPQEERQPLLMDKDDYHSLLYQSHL
Experimental: Analogs 1, 3, and 5 were exposed to B16F10 cells at various concentrations (20, 10, 5, and 0 µM) before exposure to IBMX (200 µM; 3-isobutyl-1-methylxanthine) and α-MSH (1 µM; α-melanocyte-stimulating hormone). After incubation (72 h), B16F10 cellular tyrosinase activity was determined. […] It was examined whether the cellular tyrosinase inhibition of the BMTTZD analogs could influence B16F10 cellular melanin contents.
Effects on B16F10 tyrosinase inhibition were evaluated as previously described. A 6-well plate containing 1 × 10^5 B16F10 cells/well was cultivated for 23 h under conditions identical to those of the cell culture. […] The cells were cultivated for 72 h. After washing 2 times with PBS, the cells were lysed in a 100 µL lysis buffer, including phenylmethylsulfonyl fluoride (5 µL; 1 mM), Triton X-100 (5 µL; 1%), and phosphate buffer (90 µL; 50 mM (pH 6.5)). After 30 min incubation at −80 °C, the cell lysates were centrifuged at 4 °C for 30 min. The supernatants (80 µL) of the lysates were moved to each well of a microplate and mixed with 20 µL 10 mM L-dopa.

[2] = target: T1, B16F10 cellular tyrosinase; assay: In situ cellular tyrosinase activity assay using L-dopa staining; assay type: cell-based, murine; conditions: 72 h; for effect on stimulator-raised in situ intracellular tyrosinase activity (L-dopa staining): analogs 5, 10, 20 µM, kojic acid 20 µM
Experimental: Because tyrosinase plays a critical role in melanogenesis, in situ intracellular tyrosinase activity was measured. The in situ intracellular tyrosinase activity was evaluated in B16F10 cells following a previously reported procedure. Stimulators (α-MSH plus IBMX) were exposed to cells to raise tyrosinase activity levels, and analogs 1, 3, and 5 were treated at 20, 10, and 5 µM for 72 h. After fixation and permeabilization using paraformaldehyde and Triton X-100, the cells were stained with L-dopa.
A 24-well plate containing 1 × 10^3 B16F10 cells/well was cultivated for 24 h under conditions identical to those of the cell culture. […] The cells were then cultivated under conditions identical to those of the cell culture for 72 h. Cultivated cells were fixed for 40 min with paraformaldehyde (4%), washed 2 times with PBS, and permeabilized with Triton X-100 (0.1%) for 2 min. After washing 2 times with PBS, the cells in the 24-well plate were stained with a 2 mM L-dopa aqueous solution (500 µL/well) for 2 h at 37 °C. Staining was photographed and analyzed utilizing a camera connected to a microscope (Motic, Hong Kong).

mushroom tyrosinase [3] = assay: Mushroom tyrosinase inhibition assay (dopachrome, 475 nm); assay type: biochemical; conditions: for IC50: mushroom tyrosinase
Experimental: The ability of the BMTTZD analogs to inhibit mushroom tyrosinase was evaluated in the presence of L-dopa and L-tyrosine as previously described.

B16F10 cells [4] = assay: Melanin content assay in B16F10 cells; assay type: cell-based, murine; conditions: 72 h; for effect on intracellular melanin contents enhanced by IBMX plus α-MSH: 5, 10, 20 µM
Experimental: We examined whether the ability of analogs 1, 3, and 5 to inhibit intracellular tyrosinase activity could affect intracellular melanin levels. B16F10 cells were utilized as mammalian cells. IBMX and α-MSH were used at 200 µM and 1 µM, respectively, to increase melanin biosynthesis. […] For the intracellular melanin content determination, the absorbance at 405 nm was evaluated after 72 h of incubation.
The effect of BMTTZD analogs on melanin biosynthesis was investigated following a previously described method. A 6-well microplate containing 1 × 10^5 B16F10 cells/well was cultivated for 23 h under conditions identical to those of the cell culture. […] After exposure to IBMX and α-MSH, B16F10 cells were cultivated for 72 h at 37 °C. The cells were rinsed 2 times with PBS, treated with 1N-NaOH aqueous solution (100 µL), and cultivated at 60 °C for 1 h. The lysates were moved to a microplate. At 405 nm, the well absorbance was measured utilizing a VersaMax® reader. Each experiment was carried out three times independently.

B16F10 cells [5] = assay: Cell cytotoxicity test (EZ-Cytox); assay type: cell-based, murine; conditions: 2.5–20 µM, 48 and 72 h
Experimental: Because analogs 1–3 and 5 exerted potent mushroom tyrosinase inhibitory activities, their effects on anti-melanogenic and cellular tyrosinase activities were evaluated in B16F10 murine cells. Prior to examining their cellular activity, their cell viabilities were investigated. Cell viability was evaluated at 48 and 72 h after treatment with five different concentrations of analogs.
The effect on B16F10 cytotoxicity was assessed following a previously described method. Cells (1 × 10^4 cells/well of a 96-well plate) were cultivated for 24 h with 5% CO2 at 37 °C. The cells were exposed to the BMTTZD analogs (test concentrations: 20, 10, 5, 2.5, and 0 µM) and cultivated with 5% CO2 at 37 °C for 72 h. An EZ-Cytox solution (10 µL; EZ-500, DoGenBio, Seoul, Republic of Korea) was exposed to each well, and the plate was cultivated for 2 h. Cell viability was calculated from the well absorbance measured at 450 nm utilizing a reader (VersaMax®).

mushroom tyrosinase [6] = target: mushroom tyrosinase (Agaricus bisporus, UniProt C7FF04); assay: Kinetic study of mushroom tyrosinase inhibition (Lineweaver–Burk and Dixon plots); assay type: biochemical; conditions: for type of tyrosinase inhibition (Lineweaver–Burk plots): substrate L-dopa 0.5–16 mM
Experimental: The initial rate of dopachrome generation was examined at various BMTTZD analog concentrations (0, 1.5, 3, and 6 µM for analog 1; 0, 2, 4, and 8 µM for analogs 2 and 5; and 0, 0.05, 0.1, and 0.2 µM for 3) with 0.5, 1, 2, 4, 8, or 16 mM L-dopa as substrates using mushroom tyrosinase. Plotting the reciprocal of the dopachrome formation rate against the inverse of the L-dopa concentration produced Lineweaver–Burk plots (Figure 2). Each Lineweaver–Burk plot created four straight lines with different slopes. For analogs 1 and 3, the four straight lines met at a point on the y-axis, whereas for analogs 2 and 5, the four straight lines converged at a point in the second quadrant.
The Dixon plots produced lines that met in the second quadrant. The x-coordinate of the convergence position represents the inhibition constant (Ki) of the ligand.
Lineweaver–Burk (L-B) plots were acquired for the kinetic analysis of analogs against mushroom tyrosinase as previously described. In brief, 10 µL of a solution of DMSO and BMTTZD analogs 1–3 or 5 (final concentrations: 0, 1.5, 3, and 6 µM for analog 1; 0, 2, 4, and 8 µM for analogs 2 and 5; and 0, 0.05, 0.1, and 0.2 µM for analog 3) in each well of a 96-well plate was mixed with 20 µL of aqueous mushroom tyrosinase solution (200 units/mL) and 170 µL of an aqueous substrate mixture (various concentrations of L-dopa (final concentrations: 16, 8, 4, 2, 1 and 0.5 mM) and 17.2 mM sodium phosphate buffer (pH 6.5)). During incubation (15 min at 37 °C), the increase in the well absorbance (ΔOD475/min) was calculated at 1 min intervals utilizing a VersaMax® reader.

[7] = DPPH radical scavenging activity assay; conditions: 500 µM
Experimental: First, the ability of BMTTZD analogs 1–8 to scavenge DPPH radicals was examined using L-ascorbic acid (vitamin C; positive control). All samples were tested at 500 µM.
The ability of the BMTTZD analogs to scavenge DPPH radicals was evaluated as previously reported. To each well of a 96-well plate containing analogs 1–8 (5 mM in […]; 20 µL) was added a DPPH solution (0.2 mM in methanol; 180 µL). The mixture was kept in a place without light for 30 min at 25°C to generate DPPH radicals. The well absorbance at 517 nm was measured utilizing a VersaMax® reader. The ability of the analogs to remove DPPH radicals was compared to that of vitamin C.

[8] = analog at highest concentration tested (20 µM)
[9] = substrate L-dopa, read-out: IC50 (Mean ± SEM, µM) L-Dopa
[10] = substrate L-tyrosine, read-out: IC50 (Mean ± SEM, µM) L-Tyrosine

Sequence of mushroom tyrosinase (Agaricus bisporus, UniProt C7FF04) (C7FF04 1-392): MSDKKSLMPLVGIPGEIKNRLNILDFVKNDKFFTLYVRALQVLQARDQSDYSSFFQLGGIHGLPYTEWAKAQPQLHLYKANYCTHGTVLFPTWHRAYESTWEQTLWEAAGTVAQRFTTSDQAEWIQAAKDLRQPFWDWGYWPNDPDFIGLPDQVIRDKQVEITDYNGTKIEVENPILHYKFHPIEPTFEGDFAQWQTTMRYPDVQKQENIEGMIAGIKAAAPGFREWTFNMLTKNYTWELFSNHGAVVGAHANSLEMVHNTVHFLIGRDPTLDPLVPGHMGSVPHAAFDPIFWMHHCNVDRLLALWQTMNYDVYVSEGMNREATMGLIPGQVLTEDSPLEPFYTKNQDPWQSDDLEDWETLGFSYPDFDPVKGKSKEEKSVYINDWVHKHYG

CN1C(=O)/C(=C/c2ccc(O)cc2)SC1=S [Analog 1, (Z)-5-(4-Hydroxybenzylidene)-3-methyl-2-thioxothiazolidin-4-one]
effect on stimulator-induced cellular tyrosinase activity [1]: concentration-dependently and significantly reduced
cellular tyrosinase inhibition compared with kojic acid (20 µM) ([1]; analog at 10 µM): slightly more strongly than kojic acid
cellular tyrosinase inhibition compared with kojic acid (20 µM) [1, 8]: stronger inhibitory effects than kojic acid
in situ intracellular tyrosinase inhibition compared with kojic acid ([2]; 20 µM): weaker intracellular tyrosinase inhibition efficacy than kojic acid
effect on stimulator-raised in situ intracellular tyrosinase activity (L-dopa staining) [2]: concentration-dependently reduced the stimulator-enhanced intracellular tyrosinase inhibition
reduction in tyrosinase inhibition relative to analog 3 (mushroom tyrosinase [3]; substrate L-dopa): 17 fold
IC50 (mushroom tyrosinase [3]; [9]): 17.6 ± 0.62 µM
tyrosinase inhibition, times stronger than kojic acid (mushroom tyrosinase [3]; substrate L-tyrosine): five times more strongly than kojic acid
IC50 (mushroom tyrosinase [3]; [10]): 3.82 ± 0.22 µM
intracellular melanin contents compared with kojic acid (B16F10 cells [4]; 20 µM): levels similar to those in treatment with kojic acid
effect on intracellular melanin contents enhanced by IBMX plus α-MSH (B16F10 cells [4]): significantly reduced the melanin contents
cytotoxicity (cell viability) (B16F10 cells [5]): did not exhibit cytotoxicity at ≤20 µM
type of tyrosinase inhibition (Lineweaver–Burk plots) (mushroom tyrosinase [6]): competitive inhibitors
Ki (mushroom tyrosinase [6]; substrate L-dopa, read-out: inhibition constant (Ki) from Dixon plots): 6.2 µM

COc1cc(/C=C2\SC(=S)N(C)C2=O)ccc1O [Analog 4, (Z)-5-(4-Hydroxy-3-methoxybenzylidene)-3-methyl-2-thioxothiazolidin-4-one]
DPPH radical scavenging activity [7]: 82%
IC50 (mushroom tyrosinase [3]; [9]): > 200 µM
IC50 (mushroom tyrosinase [3]; [10]): 54.8 ± 16.1 µM

COc1ccc(/C=C2\SC(=S)N(C)C2=O)cc1O [Analog 5, (Z)-5-(3-Hydroxy-4-methoxybenzylidene)-3-methyl-2-thioxothiazolidin-4-one]
effect on stimulator-induced cellular tyrosinase activity [1]: concentration-dependently and significantly reduced
cellular tyrosinase inhibition compared with kojic acid (20 µM) [1, 8]: stronger inhibitory effects than kojic acid
effect on stimulator-raised in situ intracellular tyrosinase activity (L-dopa staining) [2]: concentration-dependently reduced the stimulator-enhanced intracellular tyrosinase inhibition
IC50 (mushroom tyrosinase [3]; [9]): 13.8 ± 2.64 µM
IC50 (mushroom tyrosinase [3]; [10]): 3.6 ± 0.52 µM
intracellular melanin contents compared with kojic acid (B16F10 cells [4]; 20 µM): levels similar to those in treatment with kojic acid
effect on intracellular melanin contents enhanced by IBMX plus α-MSH (B16F10 cells [4]): significantly reduced the melanin contents
cytotoxicity (cell viability) (B16F10 cells [5]): did not exhibit cytotoxicity at ≤20 µM
type of tyrosinase inhibition (Lineweaver–Burk plots) (mushroom tyrosinase [6]): mixed-type inhibitors

COc1cc(/C=C2\SC(=S)N(C)C2=O)cc(OC)c1O [Analog 6, (Z)-5-(4-Hydroxy-3,5-dimethoxybenzylidene)-3-methyl-2-thioxothiazolidin-4-one]
IC50 (mushroom tyrosinase [3]; [9]): > 200 µM
IC50 (mushroom tyrosinase [3]; [10]): 57.4 ± 10.9 µM

CN1C(=O)/C(=C/c2ccc(O)c(Br)c2)SC1=S [Analog 7, (Z)-5-(3-Bromo-4-hydroxybenzylidene)-3-methyl-2-thioxothiazolidin-4-one]
IC50 (mushroom tyrosinase [3]; [9]): > 200 µM
IC50 (mushroom tyrosinase [3]; [10]): 33.2 ± 8.42 µM

CN1C(=O)/C(=C/c2cc(Br)c(O)c(Br)c2)SC1=S [Analog 8, (Z)-5-(3,5-Dibromo-4-hydroxybenzylidene)-3-methyl-2-thioxothiazolidin-4-one]
IC50 (mushroom tyrosinase [3]; [9]): > 200 µM
IC50 (mushroom tyrosinase [3]; [10]): > 200 µM

O=c1cc(CO)occ1O [Kojic acid, reference compound]
decrease of intracellular melanin contents (B16F10 cells [4]; 20 µM, IBMX plus α-MSH (raised melanin 4.4-fold)): 3.3 fold

O=C1O[C@H]([C@@H](O)CO)C(O)=C1O [L-Ascorbic acid, reference compound]
DPPH radical scavenging activity [7]: 97%
